Several values for one entry are separate records, joined by “and”; a condition that tells them apart may be missing. Identical values can stand only once. Inconclusive results and toxic doses are left out. How the source made its calls: active means survival T/C of 150% or more; inactive means T/C below 125% in these data.
System: P388 leukemia ip, CD2F1 mice, survival T/C
Test: NCI In Vivo Anticancer Drug Screen. Data for tumor model P388 Leukemia (intraperitoneal) in CD2F1 (CDF1) mice
Conditions: endpoint: median survival time, higher = longer survival
How it was run: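 Mice carrying the transplanted tumor received test compound or vehicle. Survival was recorded in each group, and the value is the treated-group measurement divided by that of the vehicle-treated control group.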

[1] = dose: 50.0 mg/kg/injection, schedule: Q01DX005 (ip), vehicle: saline with Tween-80
[2] = dose: 100.0 mg/kg/injection, schedule: Q01DX005 (ip), vehicle: saline with Tween-80
[3] = dose: 200.0 mg/kg/injection, schedule: Q01DX005 (ip), vehicle: saline with Tween-80
[4] = dose: 60.0 mg/kg/injection, schedule: Q01DX005 (ip), vehicle: saline with Tween-80
[5] = dose: 12.5 mg/kg/injection, schedule: Q01DX005 (ip), vehicle: saline with Tween-80
[6] = dose: 25.0 mg/kg/injection, schedule: Q01DX005 (ip), vehicle: saline with Tween-80
[7] = dose: 120.0 mg/kg/injection, schedule: Q01DX005 (ip), vehicle: saline with Tween-80
[8] = dose: 240.0 mg/kg/injection, schedule: Q01DX005 (ip), vehicle: saline with Tween-80
[9] = dose: 100.0 mg/kg/injection, schedule: Q04DX002 (ip), vehicle: saline with Tween-80
[10] = dose: 200.0 mg/kg/injection, schedule: Q04DX002 (ip), vehicle: saline with Tween-80
[11] = dose: 50.0 mg/kg/injection, schedule: Q01DX009 (ip), vehicle: saline with Tween-80

Measured: T/C

O=C(c1ccc(Br)cc1)c1ccc(Br)cc1
inactive: dose: 10.0 mg/kg/injection, schedule: Q01DX009 (ip), vehicle: other 100 % of control | dose: 20.0 mg/kg/injection, schedule: Q01DX009 (ip), vehicle: other 105 % of control | dose: 40.0 mg/kg/injection, schedule: Q01DX009 (ip), vehicle: other 92 % of control | dose: 50.0 mg/kg/injection, schedule: Q04DX003 (ip), vehicle: saline 99 % of control | dose: 80.0 mg/kg/injection, schedule: Q01DX009 (ip), vehicle: other 92 % of control | dose: 100.0 mg/kg/injection, schedule: Q04DX003 (ip), vehicle: saline 93 % of control | dose: 160.0 mg/kg/injection, schedule: Q01DX009 (ip), vehicle: other 105 % of control | dose: 200.0 mg/kg/injection, schedule: Q04DX003 (ip), vehicle: saline 94 % of control | dose: 320.0 mg/kg/injection, schedule: Q01DX009 (ip), vehicle: other 100 % of control | dose: 400.0 mg/kg/injection, schedule: Q04DX003 (ip), vehicle: saline 95 % of control

CCOC(=O)c1ccc(N)[n+](C2OC(COC(=O)c3ccccc3)C(OC(=O)c3ccccc3)C2OC(=O)c2ccccc2)c1 (stereo unspecified)
inactive: [1] 92 % of control | [2] 107 % of control | [3] 112 % of control

C/C(=N\NC(=S)N1CCN(c2ccccn2)CC1)c1cccc2cccnc12
inactive: [1] 103 % of control | [2] 106 % of control | [3] 110 % of control

COC(=O)C1=C(C(=O)OC)C2OC1c1cc3ccccc3cc12
inactive: dose: 7.5 mg/kg/injection, schedule: Q01DX005 (ip), vehicle: saline with Tween-80 113 % of control | dose: 15.0 mg/kg/injection, schedule: Q01DX005 (ip), vehicle: saline with Tween-80 113 % of control | dose: 30.0 mg/kg/injection, schedule: Q01DX005 (ip), vehicle: saline with Tween-80 108 % of control | [4] 97 % of control

O=C(O)c1c2ccccc2nc2ccccc12
inactive: [5] 106 % of control and 93 % of control | [6] 100 % of control and 95 % of control | [1] 104 % of control and 113 % of control and 121 % of control

CC(/C=C/c1ccc2c(c1)OCO2)=N\NC(N)=S
inactive: dose: 3.13 mg/kg/injection, schedule: Q01DX005 (ip), vehicle: saline with Tween-80 104 % of control | dose: 6.25 mg/kg/injection, schedule: Q01DX005 (ip), vehicle: saline with Tween-80 112 % of control

O=C(N/N=C/c1ccco1)c1cccnc1
inactive: [4] 92 % of control | [7] 92 % of control | [8] 101 % of control

CC1=NOC(=O)C1N=Nc1ccc(Br)cc1C (stereo unspecified)
inactive: [9] 101 % of control | dose: 100.0 mg/kg/injection, schedule: Q05DX002 (ip), vehicle: saline with Tween-80 99 % of control | [10] 98 % of control | dose: 200.0 mg/kg/injection, schedule: Q05DX002 (ip), vehicle: saline with Tween-80 99 % of control | dose: 400.0 mg/kg/injection, schedule: Q04DX002 (ip), vehicle: saline with Tween-80 102 % of control

CC(=O)Cc1c(-c2ccccc2)nc(=S)[nH]c1C
inactive: dose: 50.0 mg/kg/injection, schedule: Q01DX009 (ip), vehicle: saline 100 % of control and 97 % of control | dose: 100.0 mg/kg/injection, schedule: Q01DX009 (ip), vehicle: saline 91 % of control and 92 % of control | dose: 200.0 mg/kg/injection, schedule: Q01DX009 (ip), vehicle: saline 100 % of control and 94 % of control and 96 % of control

[Cl][Cu][Cl].[NH-]C1CCCC2CCC[N-]C12 (stereo unspecified)
inactive: dose: 12.5 mg/kg/injection, schedule: Q04DX002 (ip), vehicle: saline with Tween-80 106 % of control

O=[N+]([O-])c1ccc(Cl)nc1
inactive: dose: 22.0 mg/kg/injection, schedule: Q01DX009 (ip), vehicle: saline with Tween-80 103 % of control | dose: 33.0 mg/kg/injection, schedule: Q01DX009 (ip), vehicle: saline with Tween-80 97 % of control | [11] 91 % of control | dose: 75.0 mg/kg/injection, schedule: Q01DX009 (ip), vehicle: saline with Tween-80 99 % of control | dose: 100.0 mg/kg/injection, schedule: Q04DX003 (ip), vehicle: saline sonified 100 % of control | dose: 200.0 mg/kg/injection, schedule: Q04DX003 (ip), vehicle: saline sonified 95 % of control | dose: 400.0 mg/kg/injection, schedule: Q04DX003 (ip), vehicle: saline sonified 90 % of control

O=C1c2cc3cc4ccccc4cc3cc2C(=O)c2c(O)ccc(O)c21
inactive: dose: 50.0 mg/kg/injection, schedule: Q04DX002 (ip), vehicle: saline with Tween-80 90 % of control | [9] 91 % of control | [10] 99 % of control

CCC[CH2][Sn]1([CH2]CCC)[O]OC(c2ccc(C)cc2)[O]1 (stereo unspecified)
inactive: dose: 0.19 mg/kg/injection, schedule: Q01DX009 (ip), vehicle: saline with Tween-80 102 % of control | dose: 0.38 mg/kg/injection, schedule: Q01DX009 (ip), vehicle: saline with Tween-80 94 % of control | dose: 0.75 mg/kg/injection, schedule: Q01DX009 (ip), vehicle: saline with Tween-80 116 % of control

Cc1ccc2cccnc2c1NCCCCCNC(C)C
inactive: [5] 97 % of control | [6] 100 % of control | [1] 100 % of control and 97 % of control

O=C(CCC(=O)Nc1ccc2[nH]c3ccccc3c(=O)c2c1)Nc1ccc2[nH]c3ccccc3c(=O)c2c1
inactive: dose: 60.0 mg/kg/injection, schedule: Q01DX005 (ip), vehicle: Klucel (hydroxypropylcellulose) (HPC) 99 % of control | dose: 120.0 mg/kg/injection, schedule: Q01DX005 (ip), vehicle: Klucel (hydroxypropylcellulose) (HPC) 96 % of control | dose: 240.0 mg/kg/injection, schedule: Q01DX005 (ip), vehicle: Klucel (hydroxypropylcellulose) (HPC) 97 % of control

Fc1ccc(CSC(=S)Nc2cccc(F)c2)cc1
inactive: dose: 50.0 mg/kg/injection, schedule: Q01DX009 (ip), vehicle: suspension in saline 90 % of control | dose: 100.0 mg/kg/injection, schedule: Q01DX009 (ip), vehicle: suspension in saline 103 % of control | dose: 200.0 mg/kg/injection, schedule: Q01DX009 (ip), vehicle: suspension in saline 107 % of control

Cc1cnnc2ccccc12
inactive: dose: 12.5 mg/kg/injection, schedule: Q01DX009 (ip), vehicle: saline with Tween-80 98 % of control | dose: 25.0 mg/kg/injection, schedule: Q01DX009 (ip), vehicle: saline with Tween-80 106 % of control | [11] 106 % of control

Cc1ccc2c(c1)C1(SC(C)C(=O)N1c1ccc(Cl)cc1)C(=O)N2CN1CCOCC1 (stereo unspecified)
inactive: [4] 113 % of control | [7] 100 % of control | [8] 121 % of control

CSC(=O)NC(=Nc1ccccc1)NC(=O)c1ccccc1
inactive: dose: 12.5 mg/kg/injection, schedule: Q01DX005 (ip), vehicle: Klucel (hydroxypropylcellulose) (HPC) 90 % of control | dose: 25.0 mg/kg/injection, schedule: Q01DX005 (ip), vehicle: Klucel (hydroxypropylcellulose) (HPC) 93 % of control | dose: 50.0 mg/kg/injection, schedule: Q01DX005 (ip), vehicle: Klucel (hydroxypropylcellulose) (HPC) 91 % of control | dose: 100.0 mg/kg/injection, schedule: Q01DX005 (ip), vehicle: Klucel (hydroxypropylcellulose) (HPC) 88 % of control | dose: 200.0 mg/kg/injection, schedule: Q01DX005 (ip), vehicle: Klucel (hydroxypropylcellulose) (HPC) 89 % of control and 91 % of control

CNC(=O)N(C)C1=NC(O)(c2ccccc2)C(c2ccccc2)=N1 (stereo unspecified)
inactive: [9] 87 % of control

Reference: PubChem BioAssay AID330 (DTP/NCI, 2004)
